For series [1], the target named is T1, CAIX-expressing human HT-29 colorectal cancer cells (Homo sapiens, UniProt Q16790).
T1 construct: CAIX-expressing human HT-29 colorectal cancer cells; host or cells: HT-29 human colorectal cancer cells
The series can be described thus: FACS binding assay (IC50 determination, competition with tracer 3BP-2776 or 3BP-4149). The conditions noted are these: 4° C., 1 hour, read-out: pIC50 category (activity) (converted). The essentials:
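HT-29 cells in FACS buffer (PBS, 1% FCS) at 500.000 cells/ml were exposed to compounds competing with a labelled tracer, with biotinylated compounds detected by 1 μg/mL APC-streptavidin for 30 min on ice. APC/Cy5 median fluorescence was read by flow cytometry and IC50 derived by 4PL fit.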

A short description of series [2]: Plasma stability assay, mouse plasma. The conditions noted are these: for remaining at 4 h, […]: mouse, plasma (K2EDTA); for % intact compound remaining (incubation time): mouse plasma, 37°C, 24 h.
Another series deals with T2, NEP (Homo sapiens, UniProt P08473).
T2 construct: Recombinant soluble human NEP; purchased BioTechne, Wiesbaden, Germany
In words: Proteolytic stability assay against NEP. Format: in vitro ADME. The note with it: human, recombinant soluble human NEP, 100 ng/mL NEP, 10 μM compound, 37°C, read-out: % intact compound remaining after 24 h incubation. The protocol: To assess the stability of compounds against NEP, the compounds were subjected to an in vitro assay based on the protocol described by Edelson et al. (Edelson et al., Pulmonary pharmacology & therapeutics, 2013, 26, 229-238).
Recombinant soluble human NEP (BioTechne, Wiesbaden, Germany) at a concentration of 100 ng/mL was mixed with the compound (10 μM) and a stable internal standard (10 μM) and incubated at 37° C. After several time points, samples were taken and analyzed with LC-MS.
The activity of NEP was examined using a commercially available chromogenic substrate of NEP.

The target of series [3] is T3, human carbonic anhydrase IX (hCAIX-Fc) (Homo sapiens, UniProt Q16790).
T3 construct: purchased SinoBliological (Sino Biological) 10107-H02H
In words: Surface plasmon resonance assay with hCAIX-Fc. The class given is binding. The note with it: 25° C.; for t1/2 category (activity): SPR dissociation half-life, hCAIX-Fc; for Kd: SPR, hCAIX-Fc captured, read-out: pKD category (activity) (converted). Background: In SPR one partner is held on a chip, and binding of the other changes the refractive index at the surface.

Setting [4] is: FACS competition on HT-29 cells, Tracer ID 3BP-2776 (10 nM, biotin-labeled).
[5] abbreviates: FACS binding assay, HT-29 cells, competition with tracer 3BP-2776 (10 nM, biotin-labeled).

The values below come from US20250339569A1, “CARBONIC ANHYDRASE IX LIGANDS” (priority 2021, published 2025).

Read-outs that look alike come from different tables or passages of the source. Starred links: 1 amine or outer side, 2 acyl side, 3 side chain; linkers in the order of their positions; H or OH if unused. Positions of bridges follow the written chain, without caps; N, C: chain ends. Non-standard residues stand in square brackets, D forms with d. Residues, ends and D or L forms follow the SMILES beside them. *: point of attachment. X16 = NC(=O)[C@H](CCCCNC(=O)CN1CCN(CC(=O)O)CCN(CC(=O)O)CCN(CC(=O)O)CC1)NC(=O)CCC(=O)NCCCOCCOCCOCCCN*; DOTA = O=C(O)CN1CCN(CC(=O)O)CCN(CC(=O)*)CCN(CC(=O)O)CC1; mXylylene = c1cc(C[*:1])cc(C[*:2])c1; Trx = NC[C@H]1CC[C@H](C(=O)O)CC1; tBuAla = CC(C)(C)C[C@H](N)C(=O)O; Ac6c = NC1(C(=O)O)CCCCC1; Dap = NC[C@H](N)C(=O)O; Nlys = NCCCCNCC(=O)O

T2 sequence (P08473 52-750 limits assumed): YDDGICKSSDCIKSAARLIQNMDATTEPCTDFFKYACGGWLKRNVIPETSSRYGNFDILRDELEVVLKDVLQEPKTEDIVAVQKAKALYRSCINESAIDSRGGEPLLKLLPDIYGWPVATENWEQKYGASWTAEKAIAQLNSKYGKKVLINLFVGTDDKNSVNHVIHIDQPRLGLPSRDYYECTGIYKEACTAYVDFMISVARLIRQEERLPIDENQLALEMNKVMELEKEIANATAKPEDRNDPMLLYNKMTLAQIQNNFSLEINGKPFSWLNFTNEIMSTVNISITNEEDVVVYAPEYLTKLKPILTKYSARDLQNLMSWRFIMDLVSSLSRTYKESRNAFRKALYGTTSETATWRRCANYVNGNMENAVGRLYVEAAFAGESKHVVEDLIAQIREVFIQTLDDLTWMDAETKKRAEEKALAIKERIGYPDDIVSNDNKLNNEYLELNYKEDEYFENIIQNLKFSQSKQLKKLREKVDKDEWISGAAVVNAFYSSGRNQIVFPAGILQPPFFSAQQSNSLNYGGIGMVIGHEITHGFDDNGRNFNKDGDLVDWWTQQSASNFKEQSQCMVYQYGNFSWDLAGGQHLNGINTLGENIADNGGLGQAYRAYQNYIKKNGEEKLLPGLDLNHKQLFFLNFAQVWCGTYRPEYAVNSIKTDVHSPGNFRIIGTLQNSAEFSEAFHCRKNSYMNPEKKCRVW

What is called share remaining is what is left of the initial amount, in per cent. As to `CC(=O)N[C@H](C(=O)N[C@@H](Cc1ccc(O)cc1)C(=O)N[C@H]1CSCc2cccc(c2)CSC[C@@H](C(N)=O)NC(=O)[C@H](CCC(N)=O)NC(=O)[C@H](Cc2c[nH]c3ccccc23)NC(=O)[C@H]([C@@H](C)O)NC(=O)[C@H](CC(C)C)NC(=O)[C@H](Cc2c[nH]c3ccccc23)NC(=O)[C@H](CC(=O)O)NC(=O)CNC(=O)[C@H](CCC(=O)O)NC1=O)C(C)C` [3BP-2837] (Ac-VYCEGDWLTWQC-NH2; linker 3-12 via mXylylene), the IC50 in series [1] (setting [4]) is less than 10 nM. Further, the share remaining at 4 h, […] in series [2] is more than 95%. Further, the fraction remaining at 24 h, 10 μM at NEP is more than 95%.

In turn, `CC(=O)N[C@H](C(=O)N[C@@H](Cc1ccc(O)cc1)C(=O)N[C@H]1CSCc2cccc(c2)CSC[C@@H](C(=O)NCCCOCCOCCOCCCNC(=O)CCC(=O)N[C@@H](CCCCNC(=O)CN2CCN(CC(=O)O)CCN(CC(=O)O)CCN(CC(=O)O)CC2)C(N)=O)NC(=O)[C@H](CCC(N)=O)NC(=O)[C@H](Cc2c[nH]c3ccccc23)NC(=O)[C@H]([C@@H](C)O)NC(=O)[C@H](CC(C)C)NC(=O)[C@H](Cc2c[nH]c3ccccc23)NC(=O)[C@H](CC(=O)O)NC(=O)CNC(=O)[C@H](CCC(=O)O)NC1=O)C(C)C` [3BP-2949] (Ac-VYCEGDWLTWQC-X16; linker 3-12 via mXylylene; N-terminus and C-terminus assumed) had an amount remaining at 4 h, […] in series [2] of 95%. Moreover, the amount remaining at 24 h, 10 μM on NEP was 82%.

Regarding `CC(=O)N[C@H](C(=O)N[C@@H](Cc1ccc(O)cc1)C(=O)N[C@H]1CSCc2cccc(c2)CSC[C@@H](C(N)=O)NC(=O)[C@H](C)NC(=O)[C@H](Cc2c[nH]c3ccccc23)NC(=O)[C@H]([C@@H](C)O)NC(=O)[C@H](CC(C)C)NC(=O)[C@H](Cc2c[nH]c3ccccc23)NC(=O)[C@H](CC(=O)O)NC(=O)CNC(=O)[C@H](CCC(=O)O)NC1=O)C(C)C` [3BP-3058] (Ac-VYCEGDWLTWAC-NH2; linker 3-12 via mXylylene), the IC50 in series [1] (setting [4]) is less than 10 nM. The same compound displayed a fraction remaining at 4 h, […] in series [2] of 95%. Besides, the amount remaining at 24 h, 10 μM at NEP was more than 95%. Moreover, in series [3], the “t1/2 category (activity)” value is “C (t1/2 between 2.1 and 5.0 minutes)”; the Kd was less than 10 nM.

Take `CC(=O)N[C@H](C(=O)N[C@@H](Cc1ccc(O)cc1)C(=O)N[C@H]1CSCc2cccc(c2)CSC[C@@H](C(N)=O)NC(=O)[C@H](C)NC(=O)[C@H](Cc2c[nH]c3ccccc23)NC(=O)[C@H]([C@@H](C)O)NC(=O)[C@H](CC(C)C)NC(=O)[C@H](Cc2c[nH]c3ccccc23)NC(=O)[C@H](CC(=O)O)NC(=O)[C@H]2CCCN2C(=O)[C@H](CCC(=O)O)NC1=O)C(C)C` [3BP-3282] (Ac-VYCE[dP]DWLTWAC-NH2; linker 3-12 via mXylylene): in series [1] (setting [4]), the IC50 was less than 10 nM. For the same compound, the share remaining at 24 h, 10 μM on NEP was more than 95%. Besides, in series [3], the “t1/2 category (activity)” value is given as “A (t1/2>15.0 minutes)” and the Kd is less than 10 nM.

Take `CC(=O)N[C@H](C(=O)N[C@@H](Cc1ccc(O)cc1)C(=O)N[C@H]1CSCc2cccc(c2)CSC[C@@H](C(N)=O)NC(=O)[C@H](CO)NC(=O)[C@H](Cc2c[nH]c3ccccc23)NC(=O)[C@H]([C@@H](C)O)NC(=O)[C@H](CC(C)(C)C)NC(=O)[C@H](Cc2c[nH]c3ccccc23)NC(=O)[C@H](CC(=O)O)NC(=O)[C@H]2CCCN2C(=O)[C@H](CCC(=O)O)NC1=O)C(C)C` [3BP-3491] (Ac-VYCE[dP]DW[tBuAla]TWSC-NH2; linker 3-12 via mXylylene): the IC50 in series [1] (setting [4]) is less than 10 nM. The compound also yielded a fraction remaining at 4 h, […] in series [2] of more than 95%. In addition, the fraction remaining at 24 h, 10 μM at NEP is more than 95%.

Consider `CC(=O)N[C@H](C(=O)N[C@@H](Cc1ccc(O)cc1)C(=O)N[C@H]1CSCc2cccc(c2)CSC[C@@H](C(N)=O)NC(=O)[C@H](C)NC(=O)[C@H](Cc2c[nH]c3ccccc23)NC(=O)[C@H]([C@@H](C)O)NC(=O)C2(CCCCC2)NC(=O)[C@H](Cc2c[nH]c3ccccc23)NC(=O)[C@H](CC(=O)O)NC(=O)[C@H]2CCCN2C(=O)[C@H](CCC(=O)O)NC1=O)C(C)C` [3BP-3503] (Ac-VYCE[dP]DW[Ac6c]TWAC-NH2; linker 3-12 via mXylylene), for which the IC50 in series [1] (setting [4]) was less than 10 nM. The compound further registered an amount remaining at 4 h, […] in series [2] of more than 95%. Besides, at NEP, the share remaining at 24 h, 10 μM was more than 95%.

In the case of `CC(=O)N[C@H](C(=O)N[C@@H](Cc1ccc(O)cc1)C(=O)N[C@H]1CSCc2cccc(c2)CSC[C@@H](C(N)=O)NC(=O)[C@H](C)NC(=O)[C@H](Cc2c[nH]c3ccccc23)NC(=O)[C@H]([C@@H](C)O)NC(=O)[C@H](CC(C)C)NC(=O)[C@H](Cc2c[nH]c3ccccc23)NC(=O)[C@H](CC(=O)O)NC(=O)CN(CCCCNC(=O)CN2CCN(CC(=O)O)CCN(CC(=O)O)CCN(CC(=O)O)CC2)C(=O)[C@H](CCC(=O)O)NC1=O)C(C)C` [3BP-3562, Ac-Val-Tyr-[Cys(3MeBn)-Glu-Nlys(DOTA)-Asp-Trp-Leu-Thr-Trp-Ala-Cys]-NH2] (Ac-VYCE[Nlys](DOTA)DWLTWAC-NH2; linker 3-12 via mXylylene), in series [1] (setting [4]), the IC50 was less than 10 nM. The compound also returned an amount remaining at 4 h, […] in series [2] of 89%. In addition, the share remaining at 24 h, 10 μM at NEP was more than 95%. Also, the Kd in series [3] is less than 10 nM.

With `CC(C)C[C@@H]1NC(=O)[C@H](Cc2c[nH]c3ccccc23)NC(=O)[C@H](CC(=O)O)NC(=O)[C@H]2CCCN2C(=O)[C@H](CCC(=O)O)NC(=O)[C@@H]2CSCc3cccc(c3)CSC[C@@H](C(N)=O)NC(=O)[C@H](CNC(=O)C[C@H](NC(=O)[C@H](CO)NC(=O)CN3CCN(CC(=O)O)CCN(CC(=O)O)CCN(CC(=O)O)CC3)C(=O)N2)NC(=O)[C@H](Cc2c[nH]c3ccccc23)NC(=O)[C@H]([C@@H](C)O)NC1=O` [3BP-4257] ({DOTA}-SDCE[dP]DWLTW[Dap]C-NH2; lactam 2-11; linker 3-12 via mXylylene), in series [1] (setting [5]), the IC50 was less than 10 nM. In addition, in series [2], the “% intact compound remaining (incubation time)” value (“% intact compound remaining” below) was found to be 94%. Moreover, in series [3], the “t1/2 category (activity)” value is “C (t1/2 between 2.1 and 5.0 minutes)”; the Kd was less than 10 nM.

In the case of `CC(C)C[C@@H]1NC(=O)[C@H](Cc2c[nH]c3ccccc23)NC(=O)[C@H](CC(=O)O)NC(=O)[C@H]2CCCN2C(=O)[C@H](CCC(=O)O)NC(=O)[C@@H]2CSCc3cccc(c3)CSC[C@@H](C(N)=O)NC(=O)[C@H](CNC(=O)C[C@H](NC(=O)[C@H]3CC[C@H](CNC(=O)CN4CCN(CC(=O)O)CCN(CC(=O)O)CCN(CC(=O)O)CC4)CC3)C(=O)N2)NC(=O)[C@H](Cc2c[nH]c3ccccc23)NC(=O)[C@H]([C@@H](C)O)NC1=O` [3BP-4258] ({DOTA-Trx}-DCE[dP]DWLTW[Dap]C-NH2; lactam 1-10; linker 2-11 via mXylylene), the IC50 in series [1] (setting [5]) is less than 10 nM. In series [2], the “% intact compound remaining” value is 93%. In series [3], the “t1/2 category (activity)” value is “C (t1/2 between 2.1 and 5.0 minutes)”; the Kd is less than 10 nM.

Take `CC(C)C[C@@H]1NC(=O)[C@H](Cc2c[nH]c3ccccc23)NC(=O)[C@H](CC(=O)O)NC(=O)[C@H]2CCCN2C(=O)[C@H](CCC(=O)O)NC(=O)[C@@H]2CSCc3cccc(c3)CSC[C@@H](C(N)=O)NC(=O)[C@H](CNC(=O)C[C@H](NC(=O)[C@@H](NC(=O)CN3CCN(CC(=O)O)CCN(CC(=O)O)CCN(CC(=O)O)CC3)C(C)C)C(=O)N2)NC(=O)[C@H](Cc2c[nH]c3ccccc23)NC(=O)[C@H]([C@@H](C)O)NC1=O` [3BP-4264] ({DOTA}-VDCE[dP]DWLTW[Dap]C-NH2; lactam 2-11; linker 3-12 via mXylylene): the IC50 in series [1] (FACS binding assay, HT-29 cells, competition with tracer 3BP-4149 (3 nM, Cy5-labeled)) is less than 10 nM. The “% intact compound remaining” value in series [2] is on record as more than 95%. Besides, in series [3], the “t1/2 category (activity)” value is listed as “A (t1/2>15.0 minutes)” and the Kd is less than 10 nM.
